Experimental data published in patent publication US11109593B2, “Isoxazolin-5-one derivative and herbicide containing same as active ingredient” (HOKKO CHEMICAL INDUSTRY CO., LTD., priority 2017, dated 2021).

Columns and labels:
Format in all cases: in vivo
Echinochloa crus-galli [1] = assay: Test Example 2: herbicidal effect test by treatment during growing period in paddy rice cultivation (seven days after seeding); settings: for Herbicidal rate (%) Echinochloa crus-galli: 120 g/10a active ingredient, assessed 14 days after treatment, dry weight vs untreated area
Description: (§1) This test was conducted in a double system per one agent solution concentration area, and the herbicidal rates (%) were determined by the following equation (Math. 1) on 14 days after the treatment with the agents. Herbicidal Rate (%)={1-(Average Dry Weight (g) of Plant of Treated Area)/(Average Dry Weight (g) of Plant of Untreated Area)}×100 [Math. 1]
(§2) Herbicidal Effect Test by Treatment During Growing Period in Paddy Rice Cultivation
(§3) Wagner pots with an area of 1/10000 ares were filled with a paddy soil, and after adding water, a compound fertilizer (N:P:K=17:17:17) was mixed, followed by soil puddling. Then, Echinochloa crus-galli, broad leaf weeds (Lindernia pyxidaria and Monochoria vaginalis) and Scirpus juncoides, 30 seeds each, were sown in a depth of 0 to 1 cm. Water was poured immediately after seeding, and the water depth was kept at about 3 cm. The subsequent management was conducted in a glass greenhouse. Emulsions prepared using the compounds in Table 4 below according to Formulation Example 5 were diluted with water seven days after seeding, and a certain amount of the water-diluted agent solutions were dropped. The converted amount of the applied active ingredient corresponded to 120 g per 10 ares. The test was conducted in a double system per one agent solution concentration area, and the herbicidal rates (%) were determined by the equation (Math. 1) on 14 days after the treatment with the agents. […] The compound numbers in Table 4 are the same as those in Table 1 and Table 2 above.

Scirpus juncoides [2] = assay: as above; settings: for Herbicidal rate (%) Scirpus juncoides: 120 g/10a active ingredient, assessed 14 days after treatment, dry weight vs untreated area
Description: as §1, §2, §3

[3] = tested on: broad leaf weeds (Lindernia pyxidaria and Monochoria vaginalis); assay: as above; settings: for Herbicidal rate (%) Lindernia pyxidaria / Herbicidal rate (%) Monochoria vaginalis: 120 g/10a active ingredient, assessed 14 days after treatment, dry weight vs untreated area
Description: as §1, §2, §3

Echinochloa crus-galli [4] = assay: Test Example 1: herbicidal effect test by treatment of rice paddy soil (immediately after seeding)
Description: (§4) Herbicidal Effect Test by Treatment of Rice Paddy Soil
(§5) Wagner pots with an area of 1/10000 ares were filled with a paddy soil, and after adding water, a compound fertilizer (N:P:K=17:17:17) was added, followed by soil puddling. Then, Echinochloa crus-galli, broad leaf weeds (Lindernia pyxidaria and Monochoria vaginalis) and Scirpus juncoides, 30 seeds each, were sown in a depth of 0 to 1 cm. Water was poured immediately after seeding, and the water depth was kept at about 3 cm. The subsequent management was conducted in a glass greenhouse. Immediately after that, emulsions prepared using the compounds in Table 3 below according to Formulation Example 5 were diluted with water, and a certain amount of the water-diluted agent solutions were dropped. The converted amount of the applied active ingredient corresponded to 120 g per 10 ares.
as §1
(§6) The compound numbers in Table 3 are the same as those in Table 1 and Table 2 above.

Scirpus juncoides [5] = assay: as above
Description: as §4, §5, §1, §6

[6] = tested on: broad leaf weeds (Lindernia pyxidaria and Monochoria vaginalis); assay: as above
Description: as §4, §5, §1, §6

[7] = 120 g/10a active ingredient, dry weight vs untreated area, 14 days after treatment
[8] = Lindernia pyxidaria, 120 g/10a active ingredient, dry weight vs untreated area, 14 days after treatment
[9] = Monochoria vaginalis, 120 g/10a active ingredient, dry weight vs untreated area, 14 days after treatment
[10] = 120 g/10a, rated 14 days after treatment, paddy soil pots
[11] = 120 g/10a active ingredient, 14 days after treatment, dry weight vs untreated area

Row | SMILES | Herbicidal rate (%) Echinochloa crus-galli (Echinochloa crus-galli [1]) [%] | Herbicidal rate (%) Scirpus juncoides (Scirpus juncoides [2]) [%] | Herbicidal rate (%) Lindernia pyxidaria ([3]; Lindernia pyxidaria) [%] | Herbicidal rate (%) Monochoria vaginalis ([3]; Monochoria vaginalis) [%] | Herbicidal rate (%) Echinochloa crus-galli (Echinochloa crus-galli [4]; [7]) [%] | Herbicidal rate (%) Scirpus juncoides (Scirpus juncoides [5]; [7]) [%] | Herbicidal rate (%) Lindernia pyxidaria [6, 8] [%] | Herbicidal rate (%) Monochoria vaginalis [6, 9] [%] | herbicidal rate, Echinochloa crus-galli (Echinochloa crus-galli [1]; [10]) [%] | herbicidal rate, Scirpus juncoides (Scirpus juncoides [2]; [10]) [%] | herbicidal rate, Lindernia pyxidaria ([3]; Lindernia pyxidaria, 120 g/10a, rated 14 days after treatment, paddy soil pots) [%] | herbicidal rate, Monochoria vaginalis ([3]; Monochoria vaginalis, 120 g/10a, rated 14 days after treatment, paddy soil pots) [%] | Herbicidal rate (%) Echinochloa crus-galli (Echinochloa crus-galli [4]; [11]) [%] | Herbicidal rate (%) Scirpus juncoides (Scirpus juncoides [5]; [11]) [%] | Herbicidal rate (%) Lindernia pyxidaria ([6]; Lindernia pyxidaria, 120 g/10a active ingredient, 14 days after treatment, dry weight vs untreated area) [%] | Herbicidal rate (%) Monochoria vaginalis ([6]; Monochoria vaginalis, 120 g/10a active ingredient, 14 days after treatment, dry weight vs untreated area) [%]
1 | Cc1c(Cc2ccccc2NS(=O)(=O)C(F)(F)F)c(=O)on1CCOC(C)C [Compound 1-155] | 100 | 80 | 60 | 60 | 90 | 80 | 60 | 60 | – | – | – | – | – | – | – | –
2 | Cc1c(Cc2ccccc2N(S(=O)(=O)C(F)(F)F)S(=O)(=O)C(F)(F)F)c(=O)on1C(C)c1ccc(OC(F)(F)F)cc1 (stereo not shown) [Compound 1-1036] | 40 | 60 | 60 | 60 | 70 | 70 | 60 | 60 | – | – | – | – | – | – | – | –
3 | CCC(C)Cn1oc(=O)c(Cc2ccccc2N(C(=O)OCc2ccccc2)S(=O)(=O)C(F)(F)F)c1C (single isomer, unassigned) [1-788 (TLC top)] | 40 | 50 | 40 | 40 | 80 | 80 | 60 | 50 | – | – | – | – | – | – | – | –
4 | COc1ccc(Cn2oc(=O)c(Cc3ccccc3N(S(=O)(=O)C(F)(F)F)S(=O)(=O)C(F)(F)F)c2C)cc1 [Compound 1-1022] | 70 | 90 | 100 | 100 | 90 | 90 | 100 | 100 | – | – | – | – | – | – | – | –
5 | Cc1c(Cc2ccccc2NS(=O)(=O)C(F)(F)F)c(=O)on1C(C)c1ccc(OC(F)(F)F)cc1 (stereo not shown) [Compound 1-209] | 40 | 90 | 60 | 80 | 90 | 70 | 60 | 60 | – | – | – | – | – | – | – | –
6 | Cc1c(Cc2ccccc2N(S(=O)(=O)C(F)(F)F)S(=O)(=O)C(F)(F)F)c(=O)on1Cc1ccc(C(C)(C)C)cc1 [Compound 1-1019] | 0 | 0 | 40 | 40 | 40 | 40 | 60 | 60 | – | – | – | – | – | – | – | –
7 | Cc1c(Cc2ccccc2NS(=O)(=O)C(F)(F)F)c(=O)on1Cc1ccsc1 [Compound 1-232] | 70 | 60 | 40 | 40 | 90 | 90 | 80 | 90 | – | – | – | – | – | – | – | –
8 | Cc1c(Cc2ccccc2NS(=O)(=O)C(F)(F)F)c(=O)on1Cc1ccc(F)cc1F [Compound 1-199] | 90 | 80 | 80 | 80 | 100 | 90 | 100 | 100 | – | – | – | – | – | – | – | –
9 | Cc1c(Cc2ccccc2N(S(=O)(=O)C(F)(F)F)S(=O)(=O)C(F)(F)F)c(=O)on1CCOc1ccccc1 [Compound 1-1058] | – | – | – | – | – | – | – | – | 90 | 80 | 80 | 90 | 90 | 90 | 80 | 70
10 | Cc1c(Cc2ccccc2NS(=O)(=O)C(F)(F)F)c(=O)on1CC(F)(F)c1ccccc1 [Compound 1-220] | 40 | 90 | 100 | 90 | 90 | 90 | 100 | 100 | – | – | – | – | – | – | – | –
11 | Cc1c(Cc2ccccc2NS(=O)(=O)C(F)(F)F)c(=O)on1Cc1ccc(SC(F)(F)F)cc1 [Compound 1-198] | 40 | 40 | 90 | 90 | 80 | 80 | 100 | 100 | – | – | – | – | – | – | – | –
12 | Cc1c(Cc2ccccc2N(S(=O)(=O)C(F)(F)F)S(=O)(=O)C(F)(F)F)c(=O)on1C(C)c1ccc(F)cc1F (stereo not shown) [Compound 1-1037] | 90 | 60 | 60 | 50 | 90 | 90 | 70 | 60 | – | – | – | – | – | – | – | –
13 | Cc1c(Cc2ccccc2NS(=O)(=O)C(F)(F)F)c(=O)on1Cc1cccc(C(F)(F)F)c1 [Compound 1-193] | 60 | 70 | 80 | 80 | 90 | 90 | 100 | 100 | – | – | – | – | – | – | – | –
14 | Cc1c(Cc2ccccc2N(S(=O)(=O)C(F)(F)F)S(=O)(=O)C(F)(F)F)c(=O)on1C(C)c1ccc(F)cc1 (stereo not shown) [Compound 1-1031] | 90 | 100 | 100 | 100 | 100 | 100 | 100 | 100 | – | – | – | – | – | – | – | –
15 | Cc1c(Cc2ccccc2N(C(=O)OCC(C)C)S(=O)(=O)C(F)(F)F)c(=O)on1CC(C)C [Compound 1-671] | 90 | 90 | 60 | 90 | 90 | 90 | 90 | 90 | – | – | – | – | – | – | – | –
16 | Cc1c(Cc2ccccc2NS(=O)(=O)C(F)(F)F)c(=O)on1Cc1ccc(F)cc1Cl [Compound 1-201] | 40 | 40 | 70 | 70 | 90 | 100 | 90 | 80 | – | – | – | – | – | – | – | –
17 | Cc1c(Cc2ccccc2NS(=O)(=O)C(F)(F)F)c(=O)on1Cc1ccc(F)c(F)c1 [Compound 1-200] | 60 | 80 | 90 | 90 | 90 | 90 | 100 | 100 | – | – | – | – | – | – | – | –
